From patent US20070249670A1, “Glycogen Phosphorylase Inhibitor Compounds and Pharmaceutical Compositions Thereof” (SMITHKLINE BEECHAM CORPORATION, priority 2004, published 2007)
Where a name gives a salt, the structure may show the parent alone.

molecular target: T1, human liver glycogen phosphorylase a (HLGPa) (Homo sapiens, UniProt P06737); assay: Human liver glycogen phosphorylase a enzymatic activity assay (coupled, fluorescent resorufin readout, with and without 10 mM glucose); assay type: biochemical; settings: human liver glycogen phosphorylase a enzymatic activity assay
T1 construct: creating a full-length cDNA fused at the 5′ end to codons for methionine-glycine-alanine-histidine; 6xHis tag (leader Met-Gly-Ala-His6-Gly-Gly) (N); made in house; host or cells: E. coli (bacterial expression plasmid pTXK1007LTev)
T1 sequence (P06737 2-847 limits assumed): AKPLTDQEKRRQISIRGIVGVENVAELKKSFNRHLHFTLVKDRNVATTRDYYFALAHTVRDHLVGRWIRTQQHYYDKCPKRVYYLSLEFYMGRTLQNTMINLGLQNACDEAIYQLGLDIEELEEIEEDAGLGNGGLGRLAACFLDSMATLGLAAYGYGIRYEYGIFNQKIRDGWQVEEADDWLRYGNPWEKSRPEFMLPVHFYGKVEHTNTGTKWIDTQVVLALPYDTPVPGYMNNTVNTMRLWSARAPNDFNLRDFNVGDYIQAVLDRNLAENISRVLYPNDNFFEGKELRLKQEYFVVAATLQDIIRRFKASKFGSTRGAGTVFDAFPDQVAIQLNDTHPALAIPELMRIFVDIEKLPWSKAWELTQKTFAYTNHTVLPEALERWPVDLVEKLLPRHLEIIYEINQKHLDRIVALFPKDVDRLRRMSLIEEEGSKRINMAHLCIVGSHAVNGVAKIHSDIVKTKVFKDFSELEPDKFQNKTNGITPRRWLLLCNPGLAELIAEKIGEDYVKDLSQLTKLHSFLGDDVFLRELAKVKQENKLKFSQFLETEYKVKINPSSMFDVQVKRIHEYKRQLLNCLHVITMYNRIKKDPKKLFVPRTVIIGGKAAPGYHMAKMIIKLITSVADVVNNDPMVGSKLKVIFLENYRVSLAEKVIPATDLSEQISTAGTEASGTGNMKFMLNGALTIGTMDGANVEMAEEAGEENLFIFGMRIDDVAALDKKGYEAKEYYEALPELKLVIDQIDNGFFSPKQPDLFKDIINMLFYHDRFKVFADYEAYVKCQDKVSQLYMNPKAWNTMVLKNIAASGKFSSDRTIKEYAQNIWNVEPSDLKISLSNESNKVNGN

Row | SMILES | IC50 [nM]
1 | Cc1ccccc1NC(=O)Nc1cc2ccccc2cc1C(=O)N[C@@H](CC1CCCCC1)C(=O)O [Example 144, 3-cyclohexyl-N-{[3-({[(2-methylphenyl)amino]carbonyl}amino)-2-naphthalenyl]carbonyl}-L-alanine] | 16800
2 | Cc1cccc(C)c1NC(=O)Nc1cc2ccccc2cc1C(=O)N1CCC[C@H]1C(=O)O [Example 20, 1-[3-({[(2,6-dimethylphenyl)amino]carbonyl}amino)-2-naphthoyl]-L-proline] | 2240
3 | Cc1cccc(Cl)c1NC(=O)Nc1cc2ccccc2cc1C(=O)NC(C(=O)O)C1CCCNC1 (stereo not drawn) [Example 5, {[3-({[(2-chloro-6-methylphenyl)amino]carbonyl}amino)-2-naphthoyl]amino}(piperidin-3-yl)acetic acid trifluoroacetate] | 20900
4 | COC(=O)CCNC(=O)c1cc2ccccc2cc1NC(=O)Nc1c(C)cc(C)cc1C [Example 493, methyl N-{[3-({[(2,4,6-trimethylphenyl)amino]carbonyl}amino)-2-naphthalenyl]carbonyl}-beta-alaninate] | 9860
5 | CC[C@H](C)[C@H](NC(=O)c1sc(-c2ccc(OC)cc2)cc1NC(=O)Nc1c(C)cc(C)cc1C)C(=O)O [Example 442, N-{[5-[4-(methyloxy)phenyl]-3-({[(2,4,6-trimethylphenyl)amino]carbonyl}amino)-2-thienyl]carbonyl}-L-isoleucine] | 51
6 | CC[C@H](C)[C@H](NC(=O)c1c(NC(=O)Nc2c(C)cccc2Cl)sc2c1CCCC2)C(=O)O [Example 128, N-{[2-({[(2-chloro-6-methylphenyl)amino]carbonyl}amino)-4,5,6,7-tetrahydro-1-benzothien-3-yl]carbonyl}-L-isoleucine] | 14800
7 | O=C(Nc1sc(-c2ccc(F)cc2)cc1C(=O)O)Nc1c(Cl)cccc1Cl [Example 418, 2-({[(2,6-dichlorophenyl)amino]carbonyl}amino)-5-(4-fluorophenyl)-3-thiophenecarboxylic acid] | 2970
8 | COc1ccc(-c2nc(C(=O)N[C@H](C(=O)O)C3CCCCC3)c(NC(=O)Nc3c(Cl)cccc3Cl)s2)cc1 [Example 487, (2S)-Cyclohexyl[({5-({[(2,6-dichlorophenyl)amino]carbonyl}amino)-2-[4-(methyloxy)phenyl]-1,3-thiazol-4-yl}carbonyl)amino]ethanoic acid] | 740
9 | O=C(Cc1c(Cl)cccc1Cl)Nc1cc2ccccc2cc1C(=O)N[C@H](C(=O)O)C1CCCCC1 [Example 155, (2S)-cyclohexyl{[(3-{[(2,6-dichlorophenyl)acetyl]amino}-2-naphthalenyl)carbonyl]amino}ethanoic acid] | 6800
10 | Cc1cc(C)c(NC(=O)Nc2cc3ccccc3cc2C(=O)NCCC(=O)O)c(C)c1 [Example 494, N-{[3-({[(2,4,6-trimethylphenyl)amino]carbonyl}amino)-2-naphthalenyl]carbonyl}-beta-alanine] | 360
11 | Cc1cccc(Cl)c1NC(=O)Nc1cc2ccccc2cc1C(=O)N[C@@H](CCCCN)C(=O)O [Example 59, N-[3-({[(2-chloro-6-methylphenyl)amino]carbonyl}amino)-2-naphthoyl]-L-lysine trifluoroacetate] | 2990
12 | Cc1cc(CC2CC2)cc(C)c1NC(=O)Nc1cc(-c2ccc(F)c(F)c2)ccc1C(=O)N[C@H](C(=O)O)[C@@H](C)OC(C)(C)C [Example 483, N-({3-[({[4-(cyclopropylmethyl)-2,6-dimethylphenyl]amino}carbonyl)amino]-3′,4′-difluoro-4-biphenylyl}carbonyl)-O-(1,1-dimethylethyl)-L-threonine] | 1
13 | COc1ccc(-c2cc(NC(=O)Nc3c(C)cc(C)cc3C)c(C(=O)N[C@@H](COC(C)(C)C)C(=O)O)s2)cc1 [Example 445, O-(1,1-dimethylethyl)-N-{[5-[4-(methyloxy)phenyl]-3-({[(2,4,6-trimethylphenyl)amino]carbonyl}amino)-2-thienyl]carbonyl}-L-serine] | 82
14 | COc1ccc(-c2cc(NC(=O)Nc3c(Cl)cccc3Cl)c(C(=O)O)s2)cc1 [Example 408, 3-({[(2,6-dichlorophenyl)amino]carbonyl}amino)-5-[4-(methyloxy)phenyl]-2-thiophenecarboxylic acid] | 1150
15 | CCOC(=O)C[C@H](NC(=O)c1ccc(-c2cccc(F)c2)cc1NC(=O)Nc1c(C)cc(C)cc1C)C(=O)O [Example 506, (2S)-4-(ethyloxy)-2-({[3′-fluoro-3-({[(2,4,6-trimethylphenyl)amino]carbonyl}amino)-4-biphenylyl]carbonyl}amino)-4-oxobutanoic acid] | 1090

Other lines, results leading:

Row | IC50 [nM] | SMILES
16 | 13 | Cc1cc(C)c(NC(=O)Nc2cc3ccccc3cc2C(=O)N[C@H](C(=O)O)C2CCC(O)CC2)c(C)c1 (stereo partly drawn) [Example 502, (2S)-(4-hydroxycyclohexyl)({[3-({[(2,4,6-trimethylphenyl)amino]carbonyl}amino)-2-naphthalenyl]carbonyl}amino)ethanoic acid]
17 | 120 | Cc1cc(C)c(NC(=O)Nc2cc(F)ccc2C(=O)N[C@H](C(=O)O)C2CCCCC2)c(C)c1 [Example 192, (2S)-Cyclohexyl({[4-fluoro-2-({[(2,4,6-trimethylphenyl)amino]carbonyl}amino)phenyl]carbonyl}amino)ethanoic acid]
18 | 100 | O=C(Nc1cc(Cl)c(Cl)cc1C(=O)N[C@H](C(=O)O)C1CCCCC1)Nc1c(Cl)cccc1Cl [Example 177, (2S)-Cyclohexyl({[4,5-dichloro-2-({[(2,6-dichlorophenyl)amino]-carbonyl}amino)phenyl]carbonyl}amino)ethanoic acid]
19 | 390 | Cc1cccc(C)c1NC(=O)Nc1cc(Cl)ccc1C(=O)N[C@H](C(=O)O)C1CCCCC1 [Example 167, (2S)-({[4-Chloro-2-({[(2,6-dimethylphenyl)amino]carbonyl}amino)phenyl]carbonyl}amino)(cyclohexyl)-ethanoic acid]

same assay, conditions: human liver glycogen phosphorylase a; table does not say whether with or without 10 mM glucose

Row | SMILES | IC50 [nM]
20 | COc1ccc(-c2ccc(C(=O)N[C@H](C(=O)O)[C@@H](C)OC(C)(C)C)c(NC(=O)Nc3c(C)cc(C)cc3C)c2)cc1F [Example 235, O-(1,1-Dimethylethyl)-N-{[3′-fluoro-4′-(methyloxy)-3-({[(2,4,6-trimethylphenyl)amino]carbonyl}amino)-4-biphenylyl]carbonyl}-L-threonine] | 13
21 | CCCc1cc(C)c(NC(=O)Nc2cc(Cl)cnc2C(=O)NC2(C(=O)O)CCCCCCC2)c(C)c1 [Example 320, 1-({[5-Chloro-3-({[(2,6-dimethyl-4-propylphenyl)amino]carbonyl}amino)-2-pyridinyl]carbonyl}amino)cyclooctanecarboxylic acid] | 38
22 | CCCC[C@H](NC(=O)c1nc2ccccc2cc1NC(=O)Nc1c(Cl)cccc1Cl)C(=O)O [Example 314, N-{[3-({[(2,6-dichlorophenyl)amino]carbonyl}amino)-2-quinolinyl]carbonyl}-L-norleucine] | 1800
23 | O=C(Nc1cc(C(F)(F)F)cc(C(F)(F)F)c1)Nc1cc2ccccc2cc1C(=O)N[C@H](C(=O)O)C1CCCCC1 [Example 240, (2S)-[({3-[({[3,5-bis(trifluoromethyl)phenyl]amino}carbonyl)amino]-2-naphthalenyl}carbonyl)amino](cyclohexyl)ethanoic acid] | 8180

Continued, values first:

Row | IC50 [nM] | SMILES
24 | 1860 | Cc1cc(C)c(NC(=O)Nc2cc3ccccc3cc2C(=O)NC(C(=O)O)C2CCC(N3CCOCC3)CC2)c(C)c1 (mixture of isomers) [Example 348, (cis and trans)-[4-(4-morpholinyl)cyclohexyl]({[3-({[(2,4,6-trimethylphenyl)amino]carbonyl}amino)-2-naphthalenyl]carbonyl}amino)acetic acid]
25 | 430 | O=C(Nc1cc(-c2ccc(F)cc2)sc1C(=O)N[C@H](C(=O)O)C1CCCCC1)Nc1c(Cl)cccc1Cl [Example 387, (2S)-cyclohexyl({[3-({[(2,6-dichlorophenyl)amino]carbonyl}amino)-5-(4-fluorophenyl)-2-thienyl]carbonyl}amino)ethanoic acid]
26 | 130 | O=C(Nc1cc(F)ccc1C(=O)N[C@H](C(=O)O)C1CCCCC1)Nc1c(Cl)cc(OC(F)(F)F)cc1Cl [Example 208, (2S)-Cyclohexyl{[(2-{[({2,6-dichloro-4-[(trifluoromethyl)oxy]phenyl}amino)carbonyl]amino}-4-fluorophenyl)carbonyl]amino}ethanoic acid]
27 | 150 | Cc1cc(C)c(NC(=O)Nc2cc(-c3ccccc3)cnc2C(=O)N[C@H](C(=O)O)C2CCCCC2)c(C)c1 [Example 321, (2S)-Cyclohexyl({[5-phenyl-3-({[(2,4,6-trimethylphenyl)amino]carbonyl}amino)-2-pyridinyl]carbonyl}amino)ethanoic acid]
